In PubChem BioAssay (NCI) one finds TGI data, which are given here for 12 molecules.

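Exposure lasted 48 hours, with cells grown in 96-well plates and compounds tested at five concentrations. TGI: concentration producing complete growth inhibition.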

Common to all, as to test: NCI-60 cell line screen, 48 h
Test [1] relates to OVCAR-3 ovarian.
For test [2], the system named is MALME-3M melanoma.
In test [3] the test system is SF-539 CNS.
Test [4] has as its system SNB-75 CNS.
Test [5] has as its system KM12 colon.
Test [6] relates to A498 renal.
In test [7] the test system is TK-10 renal.
In test [8] the test system is OVCAR-8 ovarian.
Test [9] has as its system SR leukemia.
The test system of test [10] is HOP-92 NSCLC.
Test [11] concerns T-47D breast.

With `CC1(C)O[C@H]2OC(CO)C(N=[N+]=[N-])[C@H]2O1` (stereo not given in full), the TGI in test [1], in [2], in [3], in [4], in [5] and in [6] was over 100 µM in each case. The TGI in test [7], in test [8], in test [9], in test [10] and in test [11] was over 100 µM each time.

For the molecule `CN1CCCOC(c2ccc(Cl)cc2)O1` (stereo not given), the TGI in test [1], in test [2], in [3], in test [4], in [5] and in [6] was over 100 µM in each case. Besides, the TGI in test [7], in [8], in test [9], in [10] and in [11] was over 100 µM in each case.

With `COC(=O)[C@@H](NC(=O)N(Cc1ccccc1)C[C@H](CC(C)C)NC(=O)[C@@H](NC(=O)OC(C)(C)C)C(C)C)C(C)C`, the TGI in test [1], in test [2], in test [3], in test [4], in [5] and in [6] was over 100 µM in each case. Moreover, the TGI in test [7], in test [8], in test [9], in test [10] and in test [11] was over 100 µM in each case.

Turning to `Cn1nnnc1SC(F)(F)c1nc2ccccc2o1`, the TGI in test [1], in test [2], in [3], in [4], in [5] and in test [6] was over 100 µM throughout. Besides, the TGI in test [7], in test [8], in test [9], in test [10] and in test [11] was over 100 µM throughout.

Consider `N/C(=N\S(=O)(=O)c1ccc(-c2ncccc2C(F)(F)F)s1)Nc1ccc(Cl)cc1`, for which the TGI in test [1] is 38.7 µM; in test [2], 30.1 µM; in test [3], over 100 µM; in test [4], 40 µM; in [5], 81.2 µM; in test [6] it was 30.7 µM. Besides, the TGI in [7] was 26.2 µM; in test [8] it was 29.7 µM; in test [9], 46.4 µM; in test [10], 30 µM; in [11], 48.3 µM.

Turning to `O=c1cc(NNc2cccc(Cl)c2)[nH]c(=O)[nH]1`, the TGI in test [1] is 31.2 µM; in [2] it was 30.6 µM; in [3], over 100 µM; in test [4], over 100 µM; in test [5] it was over 100 µM; in [6], over 100 µM. The TGI in test [7] was 36.2 µM; in [9], over 100 µM; in [10] it was 35.5 µM; in [11], over 100 µM.

Turning to `CC(=O)SC(C[N+](=O)[O-])c1ccc2c(c1)OCO2` (stereo not given), the TGI in test [1] came to 16.6 µM; in test [2] it was 15.8 µM; in test [3] it was 5.14 µM; in [4], 41.1 µM; in [5] it was 12.7 µM; in [6], 18.3 µM. Besides, the TGI in test [7] worked out at 28.2 µM; in test [8], 28.1 µM; in [9], 7.27 µM; in test [10] it was 34.6 µM; in [11], 65.7 µM.

As to `CCOC(=O)C(Cc1ccc(O)cc1)Nc1nc(=O)c2c(=O)oc(Cl)cc2o1` (stereo not given), the TGI was determined as 20 µM in [1]; 16.5 µM in test [2]; 21.9 µM in test [3]; 18.6 µM in test [4]; 22.5 µM in test [5]; 35.3 µM in test [6]. The TGI was determined as 20.6 µM in test [7]; 14 µM in test [8]; 7.53 µM in test [9]; 25.9 µM in [10]; 25.7 µM in test [11].

On to `O=C1CC(=O)NC(=NN2C(=O)/C(=C/c3ccc(Cl)c(Cl)c3)N=C2c2ccccc2)N1`, for which the TGI in [1] is 49.4 µM; in [2], over 100 µM; in [3], 39.6 µM; in test [4], 81.8 µM; in test [5], 40.1 µM; in [6] it was 62.9 µM. Further, the TGI is over 100 µM in test [7]; 94.9 µM in [8]; 36.3 µM in [9]; 89.8 µM in test [10]; over 100 µM in test [11].

For `O=C1c2c(Br)sc(Br)c2C(=O)C1(O)O`, the TGI in test [1] is 35.9 µM; in test [2], 34.6 µM; in test [3] it was 39.4 µM; in test [4], over 100 µM; in [5], over 100 µM; in test [6], over 100 µM. Also, the TGI was over 100 µM in [7]; over 100 µM in [8]; 57.4 µM in [9]; 34.7 µM in [10]; 49.4 µM in test [11].

Regarding `CC1(C)OP(=O)(O)C=C1Sc1ccc([N+](=O)[O-])cc1[N+](=O)[O-]`, the TGI in test [1], in test [2], in [3], in [4], in [5] and in test [6] was over 100 µM in each case. Besides, the TGI in [7], in test [8], in test [9], in [10] and in test [11] was over 100 µM in each case.

In the case of `COc1ccc2nc(-c3ccccc3)c(=O)[nH]c2c1`, the TGI in test [1], in test [2], in test [3], in [4], in test [6] and in test [7] was over 100 µM in each case. Further, the TGI in test [8], in test [9], in test [10] and in test [11] was over 100 µM throughout.
